Paper PMC9402538, “Rational design of a sensitivity-enhanced tracer for discovering efficient APC–Asef inhibitors” (Nature Communications, 2022)
Where “and” joins values, the source holds several entries; their conditions need not be identical. Equal values may be shown once. Read-outs that look alike come from different tables or passages of the source. Where a SMILES comes first, the peptide text is derived from it. [ ]: non-standard residue; d: D form. The star is where a group is joined. Adamantane1carbonyl = O=C(C12CC3CC(CC(C3)C1)C2)*; Bpa = N[C@@H](Cc1ccc(C(=O)c2ccccc2)cc1)C(=O)O; Nicotinoyl = O=C(c1cccnc1)*; X1 = CSc1nccc(C(=O)*)n1; Bz = O=C(c1ccccc1)*; X2 = O=C(c1cncs1)*

Experiments:
APC = biological target: T1, APC (Homo sapiens, UniProt P25054); test: FP competitive assay using tracer 1; format: binding; settings: for FP(mp): Tracer 1, triplicate raw readings
T1 sequence (P25054 303-739): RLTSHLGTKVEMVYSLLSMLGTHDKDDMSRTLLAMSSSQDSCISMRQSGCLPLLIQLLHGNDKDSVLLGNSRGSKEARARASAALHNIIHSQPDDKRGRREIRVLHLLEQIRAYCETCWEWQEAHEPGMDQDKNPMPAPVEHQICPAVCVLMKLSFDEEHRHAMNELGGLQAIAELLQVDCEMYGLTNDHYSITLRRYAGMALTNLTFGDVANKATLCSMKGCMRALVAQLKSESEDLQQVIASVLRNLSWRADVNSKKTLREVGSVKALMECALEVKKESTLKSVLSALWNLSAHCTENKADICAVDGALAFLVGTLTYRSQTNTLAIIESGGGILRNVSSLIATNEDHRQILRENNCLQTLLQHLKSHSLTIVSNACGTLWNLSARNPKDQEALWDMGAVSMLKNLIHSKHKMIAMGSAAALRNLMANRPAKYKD
Experimental: In our previous study, we established an FP assay for screening APC–Asef inhibitors using FITC-labeled tracer 1 (Ac–^176[…][FITC]^195–NH2)[16]. […]. However, their Kd values measured by isothermal titration calorimetry (ITC) actually vary up to more than 20 times[16],[17]. […].
FITC-labeled tracer peptides were obtained from Changzhou Kanglong Biotech Ltd. (Changzhou, Jiangsu, China). […]. The FP signal changes upon tracer binding were measured after 1.5 h of incubation using a Synergy neo microplate reader (BioTek Instruments, Inc.) and plotted against the protein concentration. The corresponding EC50 values were generated by fitting the curves with a nonlinear regression model. […]. To make a working solution, APC (303–739) was diluted in FP buffer (50 mM HEPES, pH 7.5, 300 mM NaCl, 1 mM EDTA, 1 mM DTT). […] The FP signals were measured after 1.5 h of incubation at room temperature using a Synergy neo microplate reader. Three controls were included on each plate, i.e., blank (without protein and tracer), 100% inhibition (free tracer only), and 0% inhibition (protein/tracer complex only) controls. All experiments were performed in triplicate. The IC50 values of peptides were calculated by nonlinear regression analysis using GraphPad Prism 7.0 software.

APC (303–739) = biological target: T2, APC (303–739) (Homo sapiens, UniProt P25054); test: FP competitive assay using tracer 7; format: binding; settings: for IC50: Table 3 source data; for FP(mp): Tracer 7, replicate wells
T2 sequence (P25054 303-739): T1 sequence (P25054 303-739)
Experimental: FITC-labeled tracer peptides were obtained from Changzhou Kanglong Biotech Ltd. (Changzhou, Jiangsu, China). […]. The FP signal changes upon tracer binding were measured after 1.5 h of incubation using a Synergy neo microplate reader (BioTek Instruments, Inc.) and plotted against the protein concentration. The corresponding EC50 values were generated by fitting the curves with a nonlinear regression model. […]. To make a working solution, APC (303–739) was diluted in FP buffer (50 mM HEPES, pH 7.5, 300 mM NaCl, 1 mM EDTA, 1 mM DTT). The diluted APC protein (91 μL) was combined with a serial dilution of peptides (4 μL) and incubated at room temperature for 1 h, followed by the addition of 5 μL of 400 nM tracer 7. The FP signals were measured after 1.5 h of incubation at room temperature using a Synergy neo microplate reader. Three controls were included on each plate, i.e., blank (without protein and tracer), 100% inhibition (free tracer only), and 0% inhibition (protein/tracer complex only) controls. All experiments were performed in triplicate. The IC50 values of peptides were calculated by nonlinear regression analysis using GraphPad Prism 7.0 software.

[1] = Supplementary Table 4, read-out: IC50, Tracer 1
[2] = Repeat 1, read-out: IC50(μM) Repeat 1
[3] = Repeat 2, read-out: IC50(μM) Repeat 2
[4] = Repeat 3, read-out: IC50(μM) Repeat 3
[5] = mean of 3 repeats, read-out: IC50(μM) mean

SMILES: CSc1nccc(C(=O)N[C@@H](C)C(=O)NCC(=O)N[C@@H](CCC(=O)O)C(=O)N[C@@H](CO)C(=O)N[C@@H](CC(C)C)C(=O)N[C@@H](Cc2ccc(O)cc2)C(=O)N[C@@H](CCC(=O)O)C(N)=O)n1 [MAI-456] (X1-AGESLYE-NH2)
- IC50 (APC; [1]): 570 ± 120 nM

SMILES: CC(C)C[C@H](NC(=O)[C@H](CO)NC(=O)[C@H](CCC(=O)O)NC(=O)CNC(=O)[C@H](C)NC(=O)c1ccccc1)C(=O)N[C@@H](Cc1ccc(O)cc1)C(=O)N[C@@H](Cc1ccc(C(=O)c2ccccc2)cc1)C(N)=O [MAI-457] (Bz-AGESLY[Bpa]-NH2)
- IC50 (APC): 590 ± 200 nM

SMILES: CC(C)C[C@H](NC(=O)[C@H](CO)NC(=O)[C@H](CCC(=O)O)NC(=O)CNC(=O)[C@H](C)NC(=O)C12CC3CC(CC(C3)C1)C2)C(=O)N[C@@H](Cc1ccc(O)cc1)C(=O)N[C@@H](CCC(=O)O)C(N)=O [MAI-505] (Adamantane1carbonyl-AGESLYE-NH2)
- IC50 (APC (303–739); [2]): 1.57 µM
- IC50 (APC (303–739); [3]): 1.73 µM
- IC50 (APC (303–739); [4]): 1.57 µM
- FP(mp) (APC (303–739); Conc. 0.0061 μM): 310 mp and 307 mp and 309 mp
- FP(mp) (APC (303–739); Conc. 0.0122 μM): 303 mp and 302 mp and 307 mp
- FP(mp) (APC (303–739); Conc. 0.0244 μM): 307 mp and 305 mp and 308 mp
- FP(mp) (APC (303–739); Conc. 0.05 μM): 302 mp and 304 mp and 307 mp
- FP(mp) (APC (303–739); Conc. 0.10 μM): 294 mp and 293 mp and 295 mp
- FP(mp) (APC (303–739); Conc. 0.20 μM): 282 mp (2×) and 276 mp
- FP(mp) (APC (303–739); Conc. 0.39 μM): 256 mp and 254 mp and 252 mp
- FP(mp) (APC (303–739); Conc. 0.78 μM): 224 mp and 222 mp and 229 mp
- FP(mp) (APC (303–739); Conc. 1.56 μM): 180 mp and 186 mp and 189 mp
- FP(mp) (APC (303–739); Conc. 3.13 μM): 136 mp and 134 mp and 137 mp
- FP(mp) (APC (303–739); Conc. 6.25 μM): 106 mp (2×) and 108 mp
- FP(mp) (APC (303–739); Conc. 12.50 μM): 85 mp and 86 mp and 89 mp
- FP(mp) (APC (303–739); Conc. 25.00 μM): 67 mp and 68 mp and 71 mp
- FP(mp) (APC (303–739); Conc. 50.00 μM): 57 mp and 60 mp and 59 mp
- IC50 (APC (303–739); [5]): 1.62 µM
- IC50 (APC; [1]): 440 ± 120 nM
- FP(mp) (APC; Conc. 0.05 μM): 181 mp
- FP(mp) (APC; Conc. 0.10 μM): 177 mp and 182 mp and 179 mp
- FP(mp) (APC; Conc. 0.20 μM): 161 mp and 172 mp and 174 mp
- FP(mp) (APC; Conc. 0.39 μM): 139 mp and 163 mp and 161 mp
- FP(mp) (APC; Conc. 0.78 μM): 68 mp and 100 mp and 109 mp
- FP(mp) (APC; Conc. 1.56 μM): 56 mp and 64 mp and 68 mp
- FP(mp) (APC; Conc. 3.13 μM): 57 mp and 55 mp and 56 mp
- FP(mp) (APC; Conc. 6.25 μM): 52 mp and 51 mp
- FP(mp) (APC; Conc. 12.50 μM): 51 mp and 49 mp and 50 mp
- FP(mp) (APC; Conc. 25.00 μM): 47 mp and 50 mp
- FP(mp) (APC; Conc. 50.00 μM): 49 mp and 51 mp
- FP(mp) (APC; Conc. 100.00 μM): 50 mp and 48 mp
- FP(mp) (APC; Conc. 200.00 μM): 50 mp and 51 mp
- FP(mp) (APC; Conc. 400.00 μM): 50 mp and 49 mp

SMILES: CC(C)C[C@H](NC(=O)[C@H](CO)NC(=O)[C@H](CCC(=O)O)NC(=O)CNC(=O)[C@H](C)NC(=O)c1cncs1)C(=O)N[C@@H](Cc1ccc(O)cc1)C(=O)N[C@@H](CCC(=O)O)C(N)=O [MAI-508] (X2-AGESLYE-NH2)
- IC50 (APC (303–739); [2]): 0.221 µM
- IC50 (APC (303–739); [3]): 0.194 µM
- IC50 (APC (303–739); [4]): 0.241 µM
- FP(mp) (APC (303–739); Conc. 0.0061 μM): 306 mp
- FP(mp) (APC (303–739); Conc. 0.0122 μM): 306 mp and 305 mp and 307 mp
- FP(mp) (APC (303–739); Conc. 0.0244 μM): 290 mp (2×) and 289 mp
- FP(mp) (APC (303–739); Conc. 0.05 μM): 268 mp and 265 mp and 269 mp
- FP(mp) (APC (303–739); Conc. 0.10 μM): 236 mp and 233 mp (2×)
- FP(mp) (APC (303–739); Conc. 0.20 μM): 190 mp and 195 mp and 192 mp
- FP(mp) (APC (303–739); Conc. 0.39 μM): 150 mp and 147 mp and 149 mp
- FP(mp) (APC (303–739); Conc. 0.78 μM): 113 mp (2×) and 114 mp
- FP(mp) (APC (303–739); Conc. 1.56 μM): 85 mp and 90 mp and 86 mp
- FP(mp) (APC (303–739); Conc. 3.13 μM): 73 mp and 71 mp and 74 mp
- FP(mp) (APC (303–739); Conc. 6.25 μM): 65 mp and 60 mp and 61 mp
- FP(mp) (APC (303–739); Conc. 12.50 μM): 61 mp and 56 mp and 59 mp
- FP(mp) (APC (303–739); Conc. 25.00 μM): 52 mp and 55 mp and 57 mp
- FP(mp) (APC (303–739); Conc. 50.00 μM): 58 mp and 50 mp and 54 mp
- IC50 (APC (303–739); [5]): 0.219 µM
- IC50 (APC; [1]): 480 ± 160 nM
- FP(mp) (APC; Conc. 0.05 μM): 185 mp and 183 mp and 179 mp
- FP(mp) (APC; Conc. 0.10 μM): 180 mp and 181 mp and 176 mp
- FP(mp) (APC; Conc. 0.20 μM): 173 mp and 176 mp
- FP(mp) (APC; Conc. 0.39 μM): 162 mp and 161 mp
- FP(mp) (APC; Conc. 0.78 μM): 105 mp and 98 mp and 106 mp
- FP(mp) (APC; Conc. 1.56 μM): 54 mp and 56 mp
- FP(mp) (APC; Conc. 3.13 μM): 52 mp and 48 mp and 49 mp
- FP(mp) (APC; Conc. 6.25 μM): 50 mp and 47 mp and 48 mp
- FP(mp) (APC; Conc. 12.50 μM): 47 mp and 46 mp
- FP(mp) (APC; Conc. 25.00 μM): 50 mp and 48 mp and 46 mp
- FP(mp) (APC; Conc. 100.00 μM): 50 mp and 47 mp
- FP(mp) (APC; Conc. 200.00 μM): 51 mp and 48 mp and 49 mp
- FP(mp) (APC; Conc. 400.00 μM): 51 mp and 49 mp

SMILES: CC(C)C[C@H](NC(=O)[C@H](CO)NC(=O)[C@H](CCC(=O)O)NC(=O)CNC(=O)[C@H](C)NC(=O)c1ccccc1)C(=O)N[C@@H](Cc1ccc(O)cc1)C(=O)N[C@H](CCC(=O)O)C(N)=O [MAI-465] (Bz-AGESLY[dE]-NH2)
- IC50 (APC): 750 ± 150 nM

SMILES: CC(C)C[C@H](NC(=O)[C@H](CO)NC(=O)[C@H](CCC(=O)O)NC(=O)CNC(=O)[C@H](C)NC(=O)c1cccnc1)C(=O)N[C@@H](Cc1ccc(O)cc1)C(=O)N[C@@H](CCC(=O)O)C(N)=O [MAI-513] (Nicotinoyl-AGESLYE-NH2)
- IC50 (APC (303–739); [2]): 0.234 µM
- IC50 (APC (303–739); [3]): 0.331 µM
- IC50 (APC (303–739); [4]): 0.318 µM
- IC50 (APC (303–739); [5]): 0.294 µM
